{
  "source": "patent US7575889B2",
  "about": "“Compound combinations for inhibiting cell division and methods for their identification and use” (President and Fellows of Harvard College, priority 2001, dated 2009)",
  "key": {"[1]": {"test_system": "gram-negative and gram-positive bacteria", "test": "Antibacterial activity against gram-negative and gram-positive bacteria", "assay_type": "cell-based", "experimental": "FIG. 19 is a table illustrating the minimum inhibitory concentrations of FtsZ GTPase inhibitory compounds identified in vitro. The compounds were tested against a variety of gram-negative and gram-positive bacteria."}, "FtsZ GTPase activity": {"target": "FtsZ GTPase activity (Escherichia coli, UniProt P0A9A6)", "sequence (P0A9A6 whole entry)": "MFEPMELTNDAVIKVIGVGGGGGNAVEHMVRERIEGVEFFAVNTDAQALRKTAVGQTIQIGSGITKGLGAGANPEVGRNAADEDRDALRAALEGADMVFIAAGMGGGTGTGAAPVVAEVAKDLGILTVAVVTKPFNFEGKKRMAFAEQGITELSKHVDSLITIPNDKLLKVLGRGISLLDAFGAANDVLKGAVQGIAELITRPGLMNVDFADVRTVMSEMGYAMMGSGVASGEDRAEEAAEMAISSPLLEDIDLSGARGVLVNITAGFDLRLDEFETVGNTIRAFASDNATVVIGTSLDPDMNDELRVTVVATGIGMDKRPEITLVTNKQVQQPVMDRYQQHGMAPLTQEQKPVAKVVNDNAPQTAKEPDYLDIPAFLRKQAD", "conditions": "at the concentrations tested"}, "FtsZ protofilaments": {"target": "FtsZ protofilaments (Escherichia coli, UniProt P0A9A6)", "sequence (P0A9A6 whole entry)": "as above", "conditions": "for effect on FtsZ polymers (class of inhibitor): electron micrographs, FIGS. 13-15"}, "[2]": {"test_system": "E. coli DRC39 (ΔacrAB::kan)", "conditions": "for MIC: E. coli DRC39 (ΔacrAB::kan), MIC99, broth dilution"}, "Clostridium perfringens": {"test_system": "Clostridium perfringens", "assay_type": "cell-based"}, "DRC40/pBR-ftsZ+ cells": {"test_system": "DRC40/pBR-ftsZ+ cells", "test": "MIC and growth/phenotype, DRC40 with wild-type ftsZ in trans", "assay_type": "cell-based, E. coli"}, "[3]": {"test_system": "FtsZ ring assembly in E. coli DRC39 cells", "test": "FtsZ ring assembly in vivo (FtsZ-GFP fluorescence microscopy) in DRC39 cells", "assay_type": "cell-based"}, "E. coli strain DRC39": {"test_system": "E. coli strain DRC39", "test": "Combination anti-bacterial treatment at sub-MIC concentrations, growth of DRC39", "assay_type": "cell-based", "conditions": "for reduction of the MIC when combined with sub-MIC 26E-10: DRC39", "experimental": "Cell growth was assessed by visual inspection of cells incubated in culture tubes in this experiment and in the second, third, and fourth experiments described in this Example. In the fifth experiment growth was measured by reading optical density (OD600) using a multiwell plate reader. Cells were inoculated at a low concentration (1-2×10^5 cells/ml), such that the medium appeared clear."}, "B. cereus": {"test_system": "B. cereus", "test": "Killing of B. cereus", "assay_type": "cell-based"}, "[4]": {"test_system": "E. coli DRC42 (DRC39 recA::cat)", "test": "MIC, E. coli DRC42"}, "[5]": {"test_system": "E. coli MC1000 (wild-type)", "test": "MIC, broth dilution, E. coli MC1000", "conditions": "MIC99, broth dilution"}, "[6]": {"test_system": "E. coli DRC40 (DRC39 ftsZ84)", "test": "MIC and growth/phenotype, E. coli DRC40"}, "[7]": {"target": "M. tuberculosis FtzZ (FtsZMt) GTPase (Mycobacterium tuberculosis, UniProt P9WN95)", "sequence (P9WN95 whole entry)": "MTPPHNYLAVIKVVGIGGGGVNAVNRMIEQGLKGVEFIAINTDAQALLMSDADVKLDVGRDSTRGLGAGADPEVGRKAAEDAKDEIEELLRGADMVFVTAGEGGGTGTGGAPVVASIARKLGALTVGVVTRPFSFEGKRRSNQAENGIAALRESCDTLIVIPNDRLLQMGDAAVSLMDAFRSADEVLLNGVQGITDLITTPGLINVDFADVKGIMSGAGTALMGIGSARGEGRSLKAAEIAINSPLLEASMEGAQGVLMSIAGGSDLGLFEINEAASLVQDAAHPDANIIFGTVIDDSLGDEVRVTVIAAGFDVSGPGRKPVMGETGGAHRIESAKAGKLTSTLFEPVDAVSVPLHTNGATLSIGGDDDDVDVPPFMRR", "test": "Malachite green-phosphomolybdate assay of FtsZ GTPase activity (M. tuberculosis FtsZ)", "assay_type": "biochemical", "conditions": "5 min preincubation at 30° C., 1 mM GTP, averages from three determinations"}},
  "note": "pIC50: −log10 of the molar value. Like-named read-outs stand apart in the source and are kept apart here.",
  "data": [
    {"compound": "Oc1ccc(Cl)cc1Cc1cc(Cl)cc(Cc2cc(Cl)ccc2O)c1O", "note": "[27D-12]", "values": [
      {"measurement": "activity against gram positive and gram negative bacteria", "setting": "[1]", "value": "effective against gram positive bacteria at very low concentrations and also kills gram negative species"},
      {"measurement": "effect on FtsZ GTPase activity in vitro", "setting": "FtsZ GTPase activity", "value": "inhibit FtsZ GTPase activity"},
      {"measurement": "effect on FtsZ GTPase activity in vitro", "setting": "FtsZ GTPase activity; listed as 27-D12", "value": "reproducibly and robustly inhibited FtsZ GTPase activity"},
      {"measurement": "effect on FtsZ polymers (class of inhibitor)", "setting": "FtsZ protofilaments", "value": "dose dependent destabilizing effect on the polymers"},
      {"measurement": "MIC", "setting": "[2]", "value": 20, "unit": "µM"}
    ]},
    {"compound": "CC[n+]1ccc(/C=C/N(C)c2ccccc2)c2ccccc21.[I-]", "note": "[26E-10]", "values": [
      {"measurement": "phenotype and growth", "setting": "Clostridium perfringens; 80 μM, anaerobic conditions", "value": "filamentation phenotype in the presence of 80 μM 26E-10 without any overt effect on cell growth"},
      {"measurement": "phenotype", "setting": "Clostridium perfringens; Clostridium perfringens", "value": "filaments"},
      {"measurement": "cell density and filamentation versus DRC40/pBR322", "setting": "DRC40/pBR-ftsZ+ cells; DRC40/pBR-ftsZ+, 5 μM", "value": "higher cell density and less pronounced filamentation"},
      {"measurement": "MIC", "setting": "DRC40/pBR-ftsZ+ cells; DRC40 with wild-type ftsZ provided in trans (pBR-ftsZ+)", "value": 10, "unit": "µM"},
      {"measurement": "cell length (filamentation)", "setting": "[3]; 10 μM (MIC), DRC39, within 60 min of treatment", "value": "~4", "unit": "×"},
      {"measurement": "Z-rings in elongated cells", "setting": "[3]; 10 μM, DRC39, 60 min", "value": "markedly reduced in number and diminished in intensity"},
      {"measurement": "Z-rings after 90 min treatment", "setting": "[3]; DRC39, 90 min", "value": "most of the cells were devoid of distinct Z-rings"},
      {"measurement": "amount of growth relative to the absence of compound", "setting": "E. coli strain DRC39; singly, 5 μM, OD600", "value": 41, "unit": "%"},
      {"measurement": "growth inhibition", "setting": "E. coli strain DRC39; singly, 5 μM, OD600", "value": 59, "unit": "%"},
      {"measurement": "killing of B. cereus", "setting": "B. cereus", "value": "efficiently killed"},
      {"measurement": "growth and morphology", "setting": "[2]; DRC39, 5 μM, 30° C.", "value": "mixture of filaments of varying lengths and short cells present at a low density"},
      {"measurement": "MIC", "setting": "[2]", "value": 10, "unit": "µM"},
      {"measurement": "MIC", "setting": "[4]", "value": 10, "unit": "µM"},
      {"measurement": "MIC", "setting": "[5]", "value": ">40", "unit": "µM"},
      {"measurement": "growth", "setting": "[6]; DRC40/pBR322, 5 μM, 30° C.", "value": "absolutely no growth"},
      {"measurement": "MIC", "setting": "[6]; E. coli DRC40 (DRC39 ftsZ84), slight turbidity believed to be unlysed filaments", "value": 2.5, "unit": "µM"}
    ]},
    {"compound": "CC[n+]1c(/C=C/N(C)c2ccccc2)n(-c2ccccc2)c2ccc(-c3nc4ccccc4s3)cc21", "note": "[27F-02]", "values": [
      {"measurement": "pIC50", "setting": "[7]", "value": 4.15},
      {"measurement": "reduction of the MIC when combined with sub-MIC 26E-10", "setting": "E. coli strain DRC39", "value": 5, "unit": "fold"},
      {"measurement": "effect on FtsZ GTPase activity in vitro", "setting": "FtsZ GTPase activity", "value": "inhibit FtsZ GTPase activity"},
      {"measurement": "effect on FtsZ GTPase activity in vitro", "setting": "FtsZ GTPase activity; listed as 27-F02", "value": "reproducibly and robustly inhibited FtsZ GTPase activity"},
      {"measurement": "effect on FtsZ protofilament assembly in vitro", "setting": "FtsZ protofilaments", "value": "destabilizers of FtsZ protofilament assembly"},
      {"measurement": "effect on FtsZ polymers (class of inhibitor)", "setting": "FtsZ protofilaments", "value": "cause bundling of FtsZ protofilaments"},
      {"measurement": "MIC", "setting": "[2]", "value": 5, "unit": "µM"}
    ]},
    {"compound": "Nc1c(C=Cc2cc3cc(C4=NCCN4)ccc3o2)[nH]c2cc(C3=NCCN3)ccc12", "note": "[58P-18]", "values": [
      {"measurement": "FtsZ ring in treated cells", "setting": "[3]; 40 μM, DRC39 cells", "value": "none of the treated cells appear to contain a medial FtsZ ring"},
      {"measurement": "time to start of cell elongation", "setting": "[3]; 40 μM, DRC39 cells", "value": "≤ 60", "unit": "min"},
      {"measurement": "reduction of the MIC when combined with sub-MIC 26E-10", "setting": "E. coli strain DRC39", "value": "≥ 2", "unit": "fold"},
      {"measurement": "effect on FtsZ GTPase activity in vitro", "setting": "FtsZ GTPase activity", "value": "inhibit FtsZ GTPase activity"},
      {"measurement": "effect on FtsZ GTPase activity in vitro", "setting": "FtsZ GTPase activity; listed as 58-P18", "value": "reproducibly and robustly inhibited FtsZ GTPase activity"},
      {"measurement": "effect on FtsZ polymers (class of inhibitor)", "setting": "FtsZ protofilaments", "value": "cause bundling of FtsZ protofilaments"},
      {"measurement": "MIC", "setting": "[2]", "value": 80, "unit": "µM"}
    ]},
    {"compound": "C=CCOc1c(Br)cc(S(=O)(=O)c2cc(Br)c(O)c(Br)c2)cc1Br", "note": "[18M-04]", "values": [
      {"measurement": "pIC50", "setting": "[7]", "value": "< 4.00"},
      {"measurement": "activity against gram positive and gram negative bacteria", "setting": "[1]", "value": "kills gram positives"},
      {"measurement": "effect on FtsZ GTPase activity in vitro", "setting": "FtsZ GTPase activity", "value": "reproducibly and robustly inhibited FtsZ GTPase activity"},
      {"measurement": "effect on FtsZ protofilament assembly in vitro", "setting": "FtsZ protofilaments", "value": "destabilizers of FtsZ protofilament assembly"},
      {"measurement": "effect on FtsZ polymers (class of inhibitor)", "setting": "FtsZ protofilaments", "value": "dose dependent destabilizing effect on the polymers"}
    ]},
    {"compound": "CCN1C(=Cc2ccc3ccccc3[n+]2CC)C=Cc2ccccc21.[Cl-]", "note": "[3G-09]", "values": [
      {"measurement": "amount of growth relative to the absence of compound", "setting": "E. coli strain DRC39; alone, 0.375 μM, OD600", "value": 92, "unit": "%"},
      {"measurement": "growth inhibition", "setting": "E. coli strain DRC39; alone, 0.375 μM, OD600", "value": 8, "unit": "%"},
      {"measurement": "effect on FtsZ GTPase activity in vitro", "setting": "FtsZ GTPase activity", "value": "apparently do not affect FtsZ GTPase activity"},
      {"measurement": "MIC", "setting": "[2]", "value": 6, "unit": "µM"}
    ]},
    {"compound": "CCN1C(=Cc2ccc3c4ccccc4ccc3[n+]2CC)C=Cc2ccccc21.Cc1ccc(S(=O)(=O)[O-])cc1", "note": "[7N-12]", "values": [
      {"measurement": "amount of growth relative to the absence of compound", "setting": "E. coli strain DRC39; individually, 0.3 μM", "value": 98, "unit": "%"},
      {"measurement": "growth inhibition", "setting": "E. coli strain DRC39; individually, 0.3 μM", "value": 2, "unit": "%"},
      {"measurement": "effect on FtsZ GTPase activity in vitro", "setting": "FtsZ GTPase activity", "value": "inhibit FtsZ GTPase activity"}
    ]},
    {"compound": "CCN(CC)CCNc1nc(C=Cc2ccc(Cl)cc2)nc2cc3ccccc3cc12", "note": "[16L-09]", "values": [
      {"measurement": "reduction of the MIC when combined with sub-MIC 26E-10", "setting": "E. coli strain DRC39", "value": 4, "unit": "fold"},
      {"measurement": "effect on FtsZ GTPase activity in vitro", "setting": "FtsZ GTPase activity", "value": "inhibit FtsZ GTPase activity"},
      {"measurement": "effect on FtsZ GTPase activity in vitro", "setting": "FtsZ GTPase activity; listed as 16-L09", "value": "reproducibly and robustly inhibited FtsZ GTPase activity"},
      {"measurement": "effect on FtsZ polymers (class of inhibitor)", "setting": "FtsZ protofilaments", "value": "cause bundling of FtsZ protofilaments"},
      {"measurement": "MIC", "setting": "[2]", "value": 10, "unit": "µM"}
    ]}
  ]
}
